Measurements from paper PMC9862597, “Anti-Colorectal Cancer Effects of a Novel Camptothecin Derivative PCC0208037 In Vitro and In Vivo” (Pharmaceuticals, 2022).

Legend:
[1] = 0.25 h and 1 h after single i.v. injection
Protocol: Then, 0.25 h and 1 h after the injection, the colorectal and tumor tissue were removed, rinsed with saline, and blotted dry.

LS180 cells = assay: MTT cell viability assay, LS180; type: cell-based; conditions: Homo sapiens, LS180, 72 h
Protocol: Cell viability was assessed using the MTT assay, as previously reported. Briefly, colorectal cancer cells (LS180, HCT116, CT-26, and HT-29 cells) were plated onto 96-well plates at 3000 cells per well and incubated overnight. […] Control cells were treated with DMSO at a final concentration of 0.1%. Cells were cultured with the compounds or medium for 72 h. The cells were then treated with MTT. The medium was then decanted, and DMSO was added and shaken until the color reaction was complete. The […] were read using a Molecular Devices SpectraMax M5 (San Jose, CA, USA) at OD570 nm. The half maximal inhibitory concentration (IC50) was calculated.

LS180 xenograft tumor = assay: Subcutaneous LS180 xenograft model; type: in vivo, nude mice; conditions: for tumor inhibition rate (tumor weight): 15 d
Protocol: To establish xenograft tumor models, RPMI 1640 and Matrigel were mixed at a 1:1 ratio. Colorectal cancer cells (LS180: 5 × 10^6 cells) were added to 0.1 mL of the mixture, and male nude mice were subcutaneously injected with colorectal cancer cells on the right side. […] Tumor volume and animal weight were measured every 3 days and continued until the end of the experiments. All mice were euthanized by cervical dislocation at the end of the experiment, and the xenograft tumors were removed and weighed.
Figure 8 Anti-tumor effect of PCC0208037 in the LS180 xenograft tumor model. (A) Representative tumors removed after the last treatment in each treatment group. (B) Body weight gain curves of mice bearing an LS180 xenograft tumor. (C) Tumor weights in the different groups of mice after 15 d of treatment.

recombinant Topo I = target: T1, recombinant Topo I (Homo sapiens, UniProt P11387); assay: Topoisomerase I activity assay (DNA relaxation); type: biochemical; conditions: PCC0208037 100 and 10 nmol/L, SN-38 100 nmol/L, CPT-11 100 nmol/L; 30 min, 37 °C
T1 construct: purchased TopoGEN, Inc (Buena Vista, CO, USA) TG1018
T1 sequence (P11387 1-765): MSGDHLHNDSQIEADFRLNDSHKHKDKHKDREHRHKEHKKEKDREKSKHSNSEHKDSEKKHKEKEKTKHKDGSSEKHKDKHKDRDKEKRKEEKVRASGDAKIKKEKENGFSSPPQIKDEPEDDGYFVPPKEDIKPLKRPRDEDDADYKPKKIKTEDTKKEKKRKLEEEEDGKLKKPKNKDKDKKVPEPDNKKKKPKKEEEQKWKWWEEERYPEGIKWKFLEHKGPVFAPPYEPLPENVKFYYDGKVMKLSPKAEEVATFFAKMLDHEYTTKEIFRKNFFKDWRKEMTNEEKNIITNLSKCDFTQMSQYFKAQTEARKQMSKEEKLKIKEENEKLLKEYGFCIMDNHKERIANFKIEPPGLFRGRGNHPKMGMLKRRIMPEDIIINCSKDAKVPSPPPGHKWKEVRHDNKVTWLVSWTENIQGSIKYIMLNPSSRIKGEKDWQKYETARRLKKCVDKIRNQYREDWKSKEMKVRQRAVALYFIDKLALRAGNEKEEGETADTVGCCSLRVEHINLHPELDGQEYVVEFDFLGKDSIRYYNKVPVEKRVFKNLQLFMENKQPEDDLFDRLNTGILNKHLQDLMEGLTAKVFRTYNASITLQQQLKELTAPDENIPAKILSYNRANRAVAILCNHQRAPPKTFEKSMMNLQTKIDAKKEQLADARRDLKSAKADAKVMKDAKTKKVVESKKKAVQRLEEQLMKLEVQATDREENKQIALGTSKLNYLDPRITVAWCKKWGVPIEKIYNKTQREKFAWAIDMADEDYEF
Protocol: To determine whether PCC0208037 inhibited Topo I activity, a DNA relaxation assay was conducted. In this assay, supercoiled plasmid DNA was relaxed and nicked by recombinant Topo I, while no nicked DNA would be found when the Topo I enzyme was inhibited.
A Topoisomerase I Drug Screening Kit was used to detect the inhibitory activity of PCC0208037 against Topo I in the cell-free system. 1 IU Topo I and 250 ng of supercoiled plasmid DNA were pre-incubated with DMSO, PCC0208037 (100 nmol/L and 10 nmol/L), SN-38(100 nmol/L), or CPT (100 nmol/L) in a reaction buffer with a final volume of 20 μL and incubated for 30 min at 37 °C; then, the reaction was stopped by the addition of 2 ul of 10% SDS. Then, proteinase K was added to 50 ug/mL, incubated for 15 min at 37 °C, and 0.1 vol. of a loading buffer (0.25% bromophenol blue, 50% glycerol) was added. The supercoiled, relaxed, or nicked DNA was separated by 1% agarose gel in a 1 TAE (Tris-Acetate-EDTA) buffer. Ethidium bromide-stained agarose gel was photographed using Gel Doc XR.
Figure 4 Inhibition of Topo I activity by PCC0208037. […] Plasmid DNA was separated by an agarose gel and stained with ethidium bromide.

For `CCc1c2c(nc3ccc(O)cc13)-c1cc3c(c(=O)n1C2)COC(=O)[C@@]3(CC)OC(=O)Nc1nc(=O)n([C@@H]2O[C@H](C)[C@@H](O)[C@H]2O)cc1F` [PCC0208037], the “concentration in the colorectal tissue compared with CPT-11” value [1] was “significantly lower than CPT-11”, the IC50 (LS180 cells) was 220 ± 60 nM and the “tumor inhibition rate (tumor weight)” value (LS180 xenograft tumor; 5 mg/kg i.v. once every 3 days) was 29.9%. The “tumor inhibition rate (tumor weight)” value (LS180 xenograft tumor; 10 mg/kg i.v. once every 3 days) was 37.2%, the “tumor inhibition rate (tumor weight)” value (LS180 xenograft tumor; 20 mg/kg i.v. once every 3 days) was 50.8% and the “effect on body weight of tumor-bearing mice” value (LS180 xenograft tumor; PCC0208037 5, 10, 20 mg/kg, CPT-11 10 mg/kg, i.v. once every 3 days) was “without impacting the normal feeding and body weight gain”. For the same molecule, the “inhibition of Topo I activity (supercoiled plasmid DNA relaxation)” value (recombinant Topo I) was “dose-dependently increased the presence of supercoiled DNA”.
